In BigSolDB 2.1:

With `O=C(Nc1ccc([N+](=O)[O-])cc1Cl)c1cc(Cl)ccc1O` as the molecule, how does the solubility (mole fraction) (in DMSO, 298.15 K) read?
The solubility (mole fraction) was 0.000152.

What about the solubility (mole fraction) (in DMSO, 303.15 K) of the same molecule?
The solubility (mole fraction) was 0.000161.

What about the solubility (mole fraction) (in DMSO, 308.15 K) of the same molecule?
Its solubility (mole fraction) is 0.000165.

And the solubility (mole fraction) (in DMSO, 313.15 K)?
Its solubility (mole fraction) is 0.000167.

And the solubility (mole fraction) (in DMSO, 318.15 K)?
The solubility (mole fraction) was 0.00017.

What about the solubility (mole fraction) (in DMSO, 323.15 K) of the same molecule?
Its solubility (mole fraction) is 0.000205.

And the solubility (mole fraction) (in PEG-200, 298.15 K)?
The solubility (mole fraction) was 0.000527.

And the solubility (mole fraction) (in PEG-200, 303.15 K)?
Its solubility (mole fraction) is 0.000556.

What about the solubility (mole fraction) (in PEG-200, 308.15 K) of the same molecule?
The solubility (mole fraction) was 0.000604.

And the solubility (mole fraction) (in PEG-200, 313.15 K)?
The solubility (mole fraction) was 0.000666.

What about the solubility (mole fraction) (in PEG-200, 318.15 K) of the same molecule?
The solubility (mole fraction) was 0.000686.

What about the solubility (mole fraction) (in PEG-200, 323.15 K) of the same molecule?
Its solubility (mole fraction) is 0.00079.

What about the solubility (mole fraction) (in PEG-400, 298.15 K) of the same molecule?
The solubility (mole fraction) was 0.0011.

What about the solubility (mole fraction) (in PEG-400, 303.15 K) of the same molecule?
Its solubility (mole fraction) is 0.00129.

What about the solubility (mole fraction) (in PEG-400, 308.15 K) of the same molecule?
Its solubility (mole fraction) is 0.00138.

And the solubility (mole fraction) (in PEG-400, 313.15 K)?
Its solubility (mole fraction) is 0.00159.

What about the solubility (mole fraction) (in PEG-400, 318.15 K) of the same molecule?
The solubility (mole fraction) was 0.00168.

What about the solubility (mole fraction) (in PEG-400, 323.15 K) of the same molecule?
The solubility (mole fraction) was 0.00193.

What about the solubility (mole fraction) (in ethanol, 298.15 K) of the same molecule?
The solubility (mole fraction) was 0.000166.

What about the solubility (mole fraction) (in ethanol, 303.15 K) of the same molecule?
The solubility (mole fraction) was 0.000183.

And the solubility (mole fraction) (in ethanol, 308.15 K)?
The solubility (mole fraction) was 0.000186.

And the solubility (mole fraction) (in ethanol, 313.15 K)?
Its solubility (mole fraction) is 0.000186.

What about the solubility (mole fraction) (in ethanol, 318.15 K) of the same molecule?
Its solubility (mole fraction) is 0.000199.

And the solubility (mole fraction) (in ethanol, 323.15 K)?
Its solubility (mole fraction) is 0.0002.

What about the solubility (mole fraction) (in isopropanol, 298.15 K) of the same molecule?
The solubility (mole fraction) was 0.000242.

And the solubility (mole fraction) (in isopropanol, 303.15 K)?
The solubility (mole fraction) was 0.000274.

What about the solubility (mole fraction) (in isopropanol, 308.15 K) of the same molecule?
The solubility (mole fraction) was 0.000279.

And the solubility (mole fraction) (in isopropanol, 313.15 K)?
The solubility (mole fraction) was 0.000304.

What about the solubility (mole fraction) (in isopropanol, 318.15 K) of the same molecule?
Its solubility (mole fraction) is 0.000345.

And the solubility (mole fraction) (in isopropanol, 323.15 K)?
Its solubility (mole fraction) is 0.000348.

What about the solubility (mole fraction) (in methanol, 298.15 K) of the same molecule?
Its solubility (mole fraction) is 7.78e-05.

And the solubility (mole fraction) (in methanol, 303.15 K)?
Its solubility (mole fraction) is 7.69e-05.

What about the solubility (mole fraction) (in methanol, 308.15 K) of the same molecule?
The solubility (mole fraction) was 6.9e-05.

What about the solubility (mole fraction) (in methanol, 313.15 K) of the same molecule?
Its solubility (mole fraction) is 6.75e-05.

And the solubility (mole fraction) (in methanol, 318.15 K)?
The solubility (mole fraction) was 5.9e-05.

What about the solubility (mole fraction) (in methanol, 323.15 K) of the same molecule?
The solubility (mole fraction) was 5.35e-05.

And the solubility (mole fraction) (in n-butanol, 298.15 K)?
Its solubility (mole fraction) is 0.000305.

And the solubility (mole fraction) (in n-butanol, 303.15 K)?
Its solubility (mole fraction) is 0.000309.

And the solubility (mole fraction) (in n-butanol, 308.15 K)?
Its solubility (mole fraction) is 0.000345.

And the solubility (mole fraction) (in n-butanol, 313.15 K)?
Its solubility (mole fraction) is 0.000347.

What about the solubility (mole fraction) (in n-butanol, 318.15 K) of the same molecule?
Its solubility (mole fraction) is 0.000402.

And the solubility (mole fraction) (in n-butanol, 323.15 K)?
The solubility (mole fraction) was 0.000591.

What about the solubility (mole fraction) (in water, 298.15 K) of the same molecule?
The solubility (mole fraction) was 3.27e-07.

And the solubility (mole fraction) (in water, 303.15 K)?
The solubility (mole fraction) was 4.12e-07.

And the solubility (mole fraction) (in water, 308.15 K)?
The solubility (mole fraction) was 4.19e-07.

And the solubility (mole fraction) (in water, 313.15 K)?
Its solubility (mole fraction) is 4.27e-07.

What about the solubility (mole fraction) (in water, 318.15 K) of the same molecule?
The solubility (mole fraction) was 4.74e-07.

What about the solubility (mole fraction) (in water, 323.15 K) of the same molecule?
The solubility (mole fraction) was 6.04e-07.
